Reference: paper PMC12549532, “The complete λ-carrageenan depolymerization cascade from a marine Pseudoalteromonad revealed by structural analysis of the enzymes” (The Journal of Biological Chemistry, 2025)
Residue numbers refer to the chain shown, from its start.

Experiments:
[1] = target: T1, GH110A (Pseudoalteromonas distincta, UniProt Z9OJ40UL04); assay: X-ray crystal structure, soaked; assay type: binding; details: -1 subsite
T1 construct: without predicted signal peptide; pET28a N-terminal His-tag, cut with thrombin for crystals; E. coli host
T1 sequence (Z9OJ40UL04 24-600): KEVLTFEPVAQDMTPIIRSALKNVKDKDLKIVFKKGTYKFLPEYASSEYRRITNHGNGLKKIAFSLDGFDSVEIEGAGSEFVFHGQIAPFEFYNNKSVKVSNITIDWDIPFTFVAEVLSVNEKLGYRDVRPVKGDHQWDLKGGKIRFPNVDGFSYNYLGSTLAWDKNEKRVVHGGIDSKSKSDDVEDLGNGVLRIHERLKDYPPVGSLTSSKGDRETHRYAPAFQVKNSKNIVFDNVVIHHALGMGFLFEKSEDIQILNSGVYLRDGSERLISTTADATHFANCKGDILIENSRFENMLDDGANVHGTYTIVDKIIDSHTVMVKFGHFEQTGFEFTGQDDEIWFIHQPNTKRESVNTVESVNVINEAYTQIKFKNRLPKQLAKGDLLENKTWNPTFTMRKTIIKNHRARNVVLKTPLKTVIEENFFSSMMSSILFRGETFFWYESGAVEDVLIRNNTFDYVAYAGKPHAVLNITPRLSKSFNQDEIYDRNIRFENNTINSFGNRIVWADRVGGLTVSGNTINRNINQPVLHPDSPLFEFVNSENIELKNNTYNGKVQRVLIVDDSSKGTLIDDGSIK

[2] = target: T2, GH2 (Pseudoalteromonas distincta, UniProt Z9L5V2N5Y9); assay: X-ray crystal structure, soaked; assay type: binding; set-up: without predicted signal peptide; pET28a N-terminal His-tag, cut with thrombin for crystals; E. coli Tuner (DE3); details: inhibitor in -1 subsite, capping loop closed
T2 sequence (Z9L5V2N5Y9 24-826): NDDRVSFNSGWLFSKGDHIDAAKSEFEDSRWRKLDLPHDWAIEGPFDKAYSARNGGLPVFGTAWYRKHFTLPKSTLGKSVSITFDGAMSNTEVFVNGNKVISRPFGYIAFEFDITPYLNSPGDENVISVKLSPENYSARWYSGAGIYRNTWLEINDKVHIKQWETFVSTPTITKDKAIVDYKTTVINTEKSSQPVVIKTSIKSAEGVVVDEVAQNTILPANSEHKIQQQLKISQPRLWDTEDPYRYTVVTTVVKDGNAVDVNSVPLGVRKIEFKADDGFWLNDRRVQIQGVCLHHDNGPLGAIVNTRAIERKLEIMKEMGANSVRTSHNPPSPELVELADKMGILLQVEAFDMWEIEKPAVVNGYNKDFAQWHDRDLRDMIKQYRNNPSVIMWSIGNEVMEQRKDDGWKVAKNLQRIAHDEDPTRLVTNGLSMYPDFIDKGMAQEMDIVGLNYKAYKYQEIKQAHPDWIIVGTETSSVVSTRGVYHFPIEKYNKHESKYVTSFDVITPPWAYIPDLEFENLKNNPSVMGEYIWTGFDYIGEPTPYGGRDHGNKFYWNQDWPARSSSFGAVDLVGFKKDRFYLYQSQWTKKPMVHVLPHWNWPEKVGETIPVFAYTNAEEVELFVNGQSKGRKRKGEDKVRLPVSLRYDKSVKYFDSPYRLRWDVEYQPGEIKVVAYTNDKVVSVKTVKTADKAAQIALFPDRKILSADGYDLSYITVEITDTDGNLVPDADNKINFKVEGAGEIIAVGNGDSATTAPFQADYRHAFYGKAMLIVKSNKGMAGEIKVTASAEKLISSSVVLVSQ

[3] = target: T2, GH2; assay: chromogenic activity assay (data not shown)
[4] = target: T3, GH110A (Pseudoalteromonas distincta, UniProt Z9OJ40UL04, D324N, form not given); assay: X-ray crystal structure, soaked; assay type: binding; details: inactive mutant; trisaccharide G6S in -1 subsite modelled, partial occupancy in +1 and +2
T3 construct: without predicted signal peptide; pET28a N-terminal His-tag, cut with thrombin for crystals; E. coli host
T3 sequence (Z9OJ40UL04 24-600 D324N): T1 sequence (Z9OJ40UL04 24-600) with D301N

[5] = target: T4, S1_8B (Pseudoalteromonas distincta, UniProt Z9FD83UQX5, S94C, form not given); assay: preparative desulfation, product seen in crystal complexes; assay type: biochemical; details: 2-O-desulfation of the non-reducing end
T4 construct: without predicted signal peptide; pET28a N-terminal His-tag, cut with thrombin for crystals; E. coli BL21 (DE3) Star
T4 sequence (Z9FD83UQX5 24-541 S94C): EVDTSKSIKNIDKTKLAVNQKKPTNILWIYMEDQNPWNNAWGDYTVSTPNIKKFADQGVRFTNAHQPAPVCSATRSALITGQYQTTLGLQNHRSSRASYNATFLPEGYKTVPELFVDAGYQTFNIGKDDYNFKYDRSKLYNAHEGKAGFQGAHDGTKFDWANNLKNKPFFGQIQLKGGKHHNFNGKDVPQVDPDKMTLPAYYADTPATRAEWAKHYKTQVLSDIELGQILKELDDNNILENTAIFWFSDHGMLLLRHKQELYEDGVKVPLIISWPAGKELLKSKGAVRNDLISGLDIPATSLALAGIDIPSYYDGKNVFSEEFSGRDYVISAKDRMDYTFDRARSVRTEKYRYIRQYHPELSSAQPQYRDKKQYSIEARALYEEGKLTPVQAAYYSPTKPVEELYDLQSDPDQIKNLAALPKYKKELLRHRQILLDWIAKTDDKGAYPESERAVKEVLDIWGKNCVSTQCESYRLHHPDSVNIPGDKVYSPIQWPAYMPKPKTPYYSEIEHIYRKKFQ

[6] = target: T5, S1_8B (Pseudoalteromonas distincta, UniProt Z9FD83UQX5); assay: X-ray crystal structure, soaked; assay type: binding; details: inactive mutant (printed C84S); 2.1 Å; modelled as fully sulfated Hex4S6
T5 construct: without predicted signal peptide; pET28a N-terminal His-tag, cut with thrombin for crystals; E. coli BL21 (DE3) Star
T5 sequence (Z9FD83UQX5 24-541): T4 sequence (Z9FD83UQX5 24-541 S94C) with C71S

`O=S(=O)(O)OC[C@H]1OC(O)[C@H](O)[C@@H](O)[C@H]1O` (stereo partly drawn) [G6S] was tested, and the “X-ray crystal structure, soaked” value [1] was “We determined the structure of GH110A in complex with the monosaccharide G6S”.

`OC[C@H]1CNC[C@@H](O)[C@H]1O` [GIF, galactoisofagomine] was tested, and the “X-ray crystal structure, soaked” value [2] was “The structure of GH2 in complex with the inhibitor galactoisofagomine (GIF)”.

`O=[N+]([O-])c1ccc(O[C@@H]2O[C@H](CO)[C@H](O)[C@H](O)[C@H]2O)cc1` [pNP-β-Gal, pNP-β-D-galactopyranoside] was tested, and the “chromogenic activity assay (data not shown)” value [3] was “GH2 was active on pNP-β-D-galactopyranoside (pNP-β-Gal; not shown)”.

For `O=S(=O)(O)OC[C@H]1O[C@H](O[C@H]2[C@@H](O)[C@@H](CO)O[C@@H](O[C@@H]3[C@H](O)[C@@H](OS(=O)(=O)O)[C@@H](O[C@H]4[C@@H](O)[C@@H](CO)OC(O)[C@@H]4OS(=O)(=O)O)O[C@@H]3COS(=O)(=O)O)[C@@H]2OS(=O)(=O)O)[C@H](O)[C@@H](O)[C@H]1O` (stereo partly drawn) [λ-NC4 pre-treated with S1_8B], the “X-ray crystal structure, soaked” value [4] was “determining its structure in complex with λ−NC4 that was pre-treated with S1_8B”.

`O=S(=O)(O)OC[C@H]1O[C@H](O[C@H]2[C@@H](O)[C@@H](CO)O[C@@H](O[C@@H]3[C@H](O)[C@@H](OS(=O)(=O)O)[C@@H](O[C@H]4[C@@H](O)[C@@H](CO)OC(O)[C@@H]4OS(=O)(=O)O)O[C@@H]3COS(=O)(=O)O)[C@@H]2OS(=O)(=O)O)[C@H](OS(=O)(=O)O)[C@@H](O)[C@H]1O` (stereo partly drawn) [λ-NC4, λ-neocarratetraose] was tested, and the “preparative desulfation, product seen in crystal complexes” value [5] was “pretreated with S1_8B to convert the non-reducing end residue to G6S” and the “X-ray crystal structure, soaked” value [6] was “We were able to model both tetrasaccharides as fully sulfated λ−NC4 (i.e., Hex4S6)”.
